From patent US6172038A, “Antipathogenic peptides and compositions comprising them” (priority 1996, dated 2001)
Where no end group is shown, it is not given here. [ ]: non-standard residue; d: D form.

Experiments:
Escherichia coli D21 = experiment: Antibacterial activity (MIC), growth inhibition in 96-well plates; format: cell-based; settings: 100% inhibition of growth after 18-20 h at 37° C.
Bacillus megaterium Bm11 = experiment: as above; format: cell-based; settings: 100% inhibition of growth after 18-20 h at 37° C.
[1] = test system: human red blood cells (hRBC); experiment: Hemolysis of human red blood cells; format: cell-based; settings: for % hemolysis at 100 μM / % hemolysis at 50 μM peptide: 30 min at 37° C.; for hemolytic activity (dose response): up to maximum concentration tested (50 μM)
Protocol: (ix) Hemolysis of human red blood cells. The peptides were tested for their hemolytic activities against human red blood cells (hRBC). Fresh hRBC with EDTA were rinsed 3 times with PBS (35 mM phosphate buffer/0.15 M NaCl, pH 7.3) by centrifugation for 10 min at 800 g and resuspended in PBS. Peptides dissolved in PBS were then added to 50 μL of a solution of the stock hRBC in PBS to reach a final volume of 100 μL (final erythrocyte concentration, 5% v/v). The resulting suspension was incubated under agitation for 30 min at 37° C. The samples were then centrifuged at 800 g for 10 min. Release of hemoglobin was monitored by measuring the absorbance of the supernatant at 540 nm. Controls for zero hemolysis (blank) and 100% hemolysis consisted of hRBC suspended in PBS and Triton 1%, respectively.

[2] = test system: Acinetobacter calcoaceticus Ac11; experiment: Antibacterial activity (MIC), growth inhibition in 96-well plates; format: cell-based; settings: 100% inhibition of growth after 18-20 h at 37° C.
[3] = Membrane permeation, diffusion potential assay; settings: zwitterionic vesicles
Protocol: (xi) Membrane permeation induced by the peptides. Membrane permeation was assessed utilizing the diffusion potential assay (Loew et al., 1983; Sims et al., 1974) as previously described (Shai et al., 1991). In a typical experiment, in a glass tube, 4 μl of a liposomes suspension (final phospholipids concentration of 33 μM), in a K^+ containing buffer (50 mM K2 SO4, 25 mM HEPES-SO4^-2, pH 6.8), was diluted in 1 ml of an isotonic K^+ free buffer (50 mM Na2 SO4, 25 mM HEPES-SO4^-2, pH 6.8), and the fluorescent, potential-sensitive dye diS-C2 -5 was then added. Valinomycin (1 μl of 10^-7 M) was added to the suspension in order to slowly create a negative diffusion potential inside the vesicles, which led to a quenching of the dye's fluorescence. Once the fluorescence had stabilized, which took 3-10 minutes, peptides were added. The subsequent dissipation of the diffusion potential, as reflected by an increase in fluorescence, was monitored on a Perkin Elmer LS-50B spectrofluorometer, with the excitation set at 620 nm, the emission at 670 nm, and the gain adjusted to 100%. The percentage of fluorescence recovery, Ft, was defined as:
where I0 =the initial fluorescence, If =the total fluorescence observed before the addition of valinomycin, and It =the fluorescence observed after adding the peptide at time t.

[4] = phosphatidylglycerol/phosphatidylcholine (Beschiaschvili and Seelig, 1990); cited from earlier work

Molecule: KLLLKLLK [Peptide 29]
- Minimal Inhibitory Concentration E. coli (D21) (Escherichia coli D21): 3 µM
- Minimal Inhibitory Concentration B. megaterium (Bm11) (Bacillus megaterium Bm11): 3 µM
- % hemolysis at 100 μM [1]: 0%

Molecule: Lys-Gly-Phe-Phe-Ala-Leu-Ile-Pro-Lys-Ile-Ile-Ser-Ser-Pro-Leu-Phe-Lys-Thr-Leu-Leu-Ser-Ala-Val-(NH--CH2 --CH2 --NH2)2 (KGFFALI[dP]KIISSPLFKTLLSAV; not fully specified (C-terminus); printed as Lys-Gly-Phe-Phe-Ala-Leu-Ile-Pro-Lys-Ile-Ile-Ser-Ser-Pro-Leu-Phe-Lys-Thr-Leu-Leu-Ser-Ala-Val-(NH—$CH_2$—$CH_2$—$NH_2$)$_2$; also: D-Pro7 (position 7 is Ile), C-terminus written (NH--CH2--CH2--NH2)2) [Peptide 4]
- Minimal Inhibitory Concentration E. coli (D21) (Escherichia coli D21): 7.5 µM
- Minimal Inhibitory Concentration A. calcoaceticus (Ac11) [2]: 7.5 µM
- Minimal Inhibitory Concentration B. megaterium (Bm11) (Bacillus megaterium Bm11): 1.5 µM
- % hemolysis at 50 μM peptide [1]: 0%

Molecule: CC(C)C[C@H](NC(=O)[C@H](CCCCN)NC(=O)[C@@H](CC(C)C)NC(=O)[C@@H](CC(C)C)NC(=O)[C@H](CC(C)C)NC(=O)[C@@H](N)CCCCN)C(=O)N[C@@H](CC(C)C)C(=O)N[C@H](CC(C)C)C(=O)N[C@@H](CCCCN)C(=O)N[C@H](CC(C)C)C(=O)N[C@@H](CC(C)C)C(=O)N[C@@H](CCCCN)C(N)=O [Peptide 23]
- hemolytic activity (in words) [1]: devoid of hemolytic activity

Molecule: Gly-Phe-Phe-Ala-Leu-Ile-Pro-Lys-Ile-Ile-Ser-Ser-Pro-Leu-Phe-Lys-Thr-Leu-Leu-Ser-Ala-Val-(NH--CH2 --CH2 --NH2)2 (GFFALI[dP]KIISSPLFKTLLSAV; not fully specified (C-terminus); printed as Gly-Phe-Phe-Ala-Leu-Ile-Pro-Lys-Ile-Ile-Ser-Ser-Pro-Leu-Phe-Lys-Thr-Leu-Leu-Ser-Ala-Val-(NH—$CH_2$—$CH_2$—$NH_2$)$_2$; also: C-terminus written (NH--CH2--CH2--NH2)2) [Peptide 2]
- Minimal Inhibitory Concentration E. coli (D21) (Escherichia coli D21): 12.5 µM
- Minimal Inhibitory Concentration A. calcoaceticus (Ac11) [2]: 12.5 µM
- Minimal Inhibitory Concentration B. megaterium (Bm11) (Bacillus megaterium Bm11): 2.5 µM
- % hemolysis at 50 μM peptide [1]: 0%

Molecule: CC[C@@H](C)[C@@H](NC(=O)[C@H](CC(C)C)NC(=O)[C@H](C)NC(=O)[C@@H]1CCCN1C(=O)[C@H](CC(C)C)NC(=O)CNC(=O)[C@@H](NC(=O)[C@@H](NC(=O)[C@H](CC(C)C)NC(=O)[C@H](NC(=O)[C@H](CCCCN)NC(=O)[C@H](CC(C)C)NC(=O)[C@H](NC(=O)[C@H](C)NC(=O)CNC(=O)[C@@H](NC(=O)CN)[C@@H](C)CC)C(C)C)C(C)C)[C@@H](C)O)[C@@H](C)O)C(=O)N[C@@H](CO)C(=O)N[C@@H](Cc1c[nH]c2ccccc12)C(=O)N[C@H](C(=O)N[C@H](CCCCN)C(=O)N[C@@H](CCCNC(=N)N)C(=O)N[C@@H](CCCCN)C(=O)N[C@@H](CCCNC(=N)N)C(=O)N[C@@H](CCC(N)=O)C(=O)N[C@@H](CCC(N)=O)C(=O)O)[C@@H](C)CC [Peptide 19]
- hemolytic activity (dose response) [1]: practically devoid of hemolytic activity

Molecule: (Lys-Leu-Leu-Leu-Lys-Leu-Lys-Leu-Lys-Leu-Leu-Lys-Cys-NH2)5 Lys-Leu-Leu-Leu-Lys-Leu-Leu-Leu-Lys-Leu-Leu-Lys-NH2 [Peptide 93]
- Minimal Inhibitory Concentration E. coli (D21) (Escherichia coli D21): 0.1 µM
- Minimal Inhibitory Concentration B. megaterium (Bm11) (Bacillus megaterium Bm11): 0.02 µM
- % hemolysis at 100 μM [1]: 0%

Molecule: CC(C)C[C@H](NC(=O)[C@H](CCCCN)NC(=O)[C@@H](CC(C)C)NC(=O)[C@@H](CC(C)C)NC(=O)[C@H](CC(C)C)NC(=O)[C@@H](N)CCCCN)C(=O)N[C@@H](CCCCN)C(=O)N[C@H](CC(C)C)C(=O)N[C@@H](CCCCN)C(=O)N[C@H](CC(C)C)C(=O)N[C@@H](CC(C)C)C(=O)N[C@@H](CCCCN)C(N)=O [Peptide 24]
- hemolytic activity (in words) [1]: devoid of hemolytic activity

Molecule: (Lys-Leu-Leu-Leu-Lys-Leu-Leu-Leu-Lys-Leu-Leu-Lys-Cys-NH2)5 Lys-Leu-Leu-Leu-Lys-Leu-Leu-Leu-Lys-Leu-Leu-Lys-NH2 [Peptide 92]
- Minimal Inhibitory Concentration E. coli (D21) (Escherichia coli D21): 0.2 µM
- Minimal Inhibitory Concentration B. megaterium (Bm11) (Bacillus megaterium Bm11): 0.05 µM
- % hemolysis at 100 μM [1]: 0%

Molecule: CC[C@H](C)[C@H](NC(=O)CN)C(=O)NCC(=O)N[C@@H](C)C(=O)N[C@H](C(=O)N[C@@H](CC(C)C)C(=O)N[C@@H](CCCCN)C(=O)N[C@H](C(=O)N[C@@H](CC(C)C)C(=O)N[C@H](C(=O)N[C@H](C(=O)NCC(=O)N[C@@H](CC(C)C)C(=O)N1CCC[C@H]1C(=O)N[C@@H](C)C(=O)N[C@@H](CC(C)C)C(=O)N[C@H](C(=O)N[C@@H](CO)C(=O)N[C@@H](Cc1c[nH]c2ccccc12)C(=O)N[C@H](C(=O)N[C@@H](CCCCN)C(=O)N[C@@H](CCCNC(=N)N)C(=O)N[C@@H](CCCCN)C(=O)N[C@@H](CCCNC(=N)N)C(=O)N[C@@H](CCC(N)=O)C(=O)N[C@@H](CCC(N)=O)C(N)=O)[C@@H](C)CC)[C@@H](C)CC)[C@@H](C)O)[C@@H](C)O)C(C)C)C(C)C [Melittin, reference compound]
- % hemolysis at 50 μM peptide [1]: 100%
- hemolytic activity (dose response) [1]: the most hemolytic
- membrane permeating activity with PC vesicles [3]: highly active
- surface partition coefficient reported for melittin [4]: 4.5±0.6×10^4 M^-1

Molecule: CC[C@H](C)[C@H](NC(=O)[C@H](CCCCN)NC(=O)[C@H]1CCCN1C(=O)[C@@H](NC(=O)[C@H](CC(C)C)NC(=O)[C@H](C)NC(=O)[C@H](Cc1ccccc1)NC(=O)[C@H](Cc1ccccc1)NC(=O)CN)[C@@H](C)CC)C(=O)N[C@H](C(=O)N[C@@H](CO)C(=O)N[C@@H](CO)C(=O)N1CCC[C@H]1C(=O)N[C@@H](CC(C)C)C(=O)N[C@@H](Cc1ccccc1)C(=O)N[C@@H](CCCCN)C(=O)N[C@H](C(=O)N[C@H](CC(C)C)C(=O)N[C@H](CC(C)C)C(=O)N[C@@H](CO)C(=O)N[C@@H](C)C(=O)N[C@H](C(=O)NCC(=O)N[C@@H](CO)C(=O)N[C@@H](C)C(=O)N[C@@H](CC(C)C)C(=O)N[C@@H](CO)C(=O)N[C@@H](CO)C(=O)N[C@@H](CO)C(=O)NCC(=O)NCC(=O)N[C@@H](CCC(N)=O)C(=O)N[C@@H](CCC(=O)NCCN)C(=O)NCCN)C(C)C)[C@@H](C)O)[C@@H](C)CC [Peptide 1]
- hemolytic activity (dose response) [1]: practically devoid of hemolytic activity

Molecule: CC(C)C[C@H](NC(=O)[C@H](CC(C)C)NC(=O)[C@@H](CC(C)C)NC(=O)[C@@H](CC(C)C)NC(=O)[C@H](CC(C)C)NC(=O)[C@@H](N)CCCCN)C(=O)N[C@@H](CCCCN)C(=O)N[C@H](CC(C)C)C(=O)N[C@@H](CC(C)C)C(=O)N[C@H](CC(C)C)C(=O)N[C@@H](CC(C)C)C(=O)N[C@@H](CCCCN)C(N)=O [Peptide 22]
- hemolytic activity (in words) [1]: considerable hemolytic activity

Molecule: CC[C@H](C)[C@H](NC(=O)[C@H](CCCCN)NC(=O)[C@@H]1CCCN1C(=O)[C@@H](NC(=O)[C@H](CC(C)C)NC(=O)[C@H](C)NC(=O)[C@H](Cc1ccccc1)NC(=O)[C@H](Cc1ccccc1)NC(=O)CN)[C@@H](C)CC)C(=O)N[C@H](C(=O)N[C@@H](CO)C(=O)N[C@@H](CO)C(=O)N1CCC[C@H]1C(=O)N[C@@H](CC(C)C)C(=O)N[C@@H](Cc1ccccc1)C(=O)N[C@@H](CCCCN)C(=O)N[C@H](C(=O)N[C@@H](CC(C)C)C(=O)N[C@@H](CC(C)C)C(=O)N[C@@H](CO)C(=O)N[C@@H](C)C(=O)N[C@H](C(=O)NCC(=O)N[C@@H](CO)C(=O)N[C@@H](C)C(=O)N[C@@H](CC(C)C)C(=O)N[C@@H](CO)C(=O)N[C@@H](CO)C(=O)N[C@@H](CO)C(=O)NCC(=O)NCC(=O)N[C@@H](CCC(N)=O)C(=O)N[C@@H](CCC(=O)NCCN)C(=O)NCCN)C(C)C)[C@@H](C)O)[C@@H](C)CC [Peptide 8, TApar]
- hemolytic activity (dose response) [1]: the most hemolytic

Molecule: Lys-Lys-Gly-Phe-Phe-Ala-Leu-lle-Er-Lys-Ile-Ile-Ser-Ser-Pro-Leu-Phe-Lys-Thr- Leu-Leu-Ser-Ala-Val-(NH--CH2 --CH2 --NH2)2 [Peptide 5]
- Minimal Inhibitory Concentration E. coli (D21) (Escherichia coli D21): 3.5 µM
- Minimal Inhibitory Concentration A. calcoaceticus (Ac11) [2]: 3.5 µM
- Minimal Inhibitory Concentration B. megaterium (Bm11) (Bacillus megaterium Bm11): 0.75 µM
- % hemolysis at 50 μM peptide [1]: 0%

Molecule: KLLLLK [Peptide 28]
- Minimal Inhibitory Concentration E. coli (D21) (Escherichia coli D21): 200 µM
- Minimal Inhibitory Concentration B. megaterium (Bm11) (Bacillus megaterium Bm11): 50 µM
- % hemolysis at 100 μM [1]: 0%
